Assay [1] addresses PI3Kδ (p110δ/p85α) Recombinant Human Protein (Homo sapiens (Human), UniProt O00329). In words: PI3Kδ Scintillation Proximity Assay. It counts as biochemical. The settings on record: 20 μM PIP2, 2 μM ATP, 3.4 nM PI3Kδ, 120 min, room temperature. The source says: Example C. PI3Kδ Scintillation Proximity Assay Materials: [γ-^33P]ATP (10 mCi/mL) and Wheat Germ Agglutinin (WGA) YSi SPA Scintillation Beads was purchased from Perkin Elmer (Waltham, MA). Lipid kinase substrate, D-myo-Phosphatidylinositol 4,5-bisphosphate (PtdIns(4,5)P2)D (+)-sn-1,2-di-O-octanoylglyceryl, 3-O-phospho linked (PIP2), CAS 204858-53-7, was purchased from Echelon Biosciences (Salt Lake City, UT). PI3Kδ (p110δ/p85α) Recombinant Human Protein was purchased from Eurofins (St Charles, MO). ATP, MgCl2, DTT, EDTA, MOPS and CHAPS were purchased from Sigma Aldrich (St. Louis, MO). The kinase reaction was conducted in polystyrene 384-well Greiner Bio-one white plate from Thermo Fisher Scientific in a final volume of 25 μL. Inhibitors were first diluted serially in DMSO and added to the plate wells before the addition of other reaction components. The final concentration of DMSO in the assay was 2%. The PI3Kδ assay was carried out at room temperature in 20 mM MOPS, pH 6.7, 10 mM MgCl2, 5 mM DTT and CHAPS 0.03%. Reactions were initiated by the addition of ATP, the final reaction mixture consisted of 20 μM PIP2, 2 μM ATP, […] [γ-^33P] ATP, 3.4 nM PI3Kδ. Reactions were incubated for 120 min and terminated by the addition of 40 μL SPA beads suspended in quench buffer: 163 mM potassium phosphate pH 7.8, 20% glycerol, 25 mM EDTA. The final concentration of SPA beads is 1.0 mg/mL. After the plate sealing, plates were shaken overnight at room temperature and centrifuged at 1500 rpm for 10 min, the radioactivity of the product was determined by scintillation counting on Topcount (PerkinElmer). IC50 determination was performed by fitting the curve of percent of the solvent control activity versus the log of the inhibitor concentration using the GraphPad Prism 6.0 software.
For orientation: SPA uses beads or plates that emit light when radiolabelled molecules are held near them.

Assay [2] has as its target PI3Kγ (p110γ) Recombinant Human Protein (Homo sapiens (Human), UniProt P48736). Briefly: PI3K-γ Scintillation Proximity Assay. Format: biochemical. The following applies: 20 μM PIP2, 2 μM ATP, 13 nM PI3Kγ, 120 min, room temperature. The source says:
Example B. PI3K-γ Scintillation Proximity Assay Materials: [γ-^33P]ATP (10 mCi/mL) and Wheat Germ Agglutinin (WGA) YSi SPA Scintillation Beads was purchased from Perkin Elmer (Waltham, MA). Lipid kinase substrate, D-myo-Phosphatidylinositol 4,5-bisphosphate (PtdIns(4,5)P2)D (+)-sn-1,2-di-O-octanoylglyceryl, 3-O-phospho linked (PIP2), CAS 204858-53-7, was purchased from Echelon Biosciences (Salt Lake City, UT). PI3Kγ (p110γ) Recombinant Human Protein was purchased from Life technology (Grand Island, NY). ATP, MgCl2, DTT, EDTA, MOPS and CHAPS were purchased from Sigma Aldrich (St. Louis, MO). The kinase reaction was conducted in polystyrene 384-well Greiner Bio-one white plate from Thermo Fisher Scientific in a final volume of 25 μL. Inhibitors were first diluted serially in DMSO and added to the plate wells before the addition of other reaction components. The final concentration of DMSO in the assay was 2%. The PI3Kγ assay was carried out at room temperature in 20 mM MOPS, pH 6.7, 10 mM MgCl2, 5 mM DTT and CHAPS 0.03%. Reactions were initiated by the addition of ATP, the final reaction mixture consisted of 20 μM PIP2, 2 μM ATP, 0.5 μCi [γ-^33P] ATP, 13 nM PI3Kγ. Reactions were incubated for 120 min and terminated by the addition of 40 μL SPA beads suspended in quench buffer: 163 mM potassium phosphate pH 7.8, 20% glycerol, 25 mM EDTA. The final concentration of SPA beads is 1.0 mg/mL. After the plate sealing, plates were shaken overnight at room temperature and centrifuged at 1500 rpm for 10 min, the radioactivity of the product was determined by scintillation counting on Topcount (Perkin-Elmer). IC50 determination was performed by fitting the curve of percent of the solvent control activity versus the log of the inhibitor concentration using the GraphPad Prism 6.0 software.

The test system of assay [3] is Phosphorylated Ribosomal Protein S6 (RPS6) in THP-1 cells. Briefly: THP-1 RPS6 ELISA Assay. The following applies: Homo sapiens. It counts as cell-based, Human. As for the experimental part: Example A. THP-1 RPS6 ELISA Assay
To measure the Phosphorylated Ribosomal Protein S6 (RPS6) in cell lysates, THP-1 cells (Human Acute Monocytic Leukemia) are purchased from ATCC (Manassas, VA) and maintained in RPMI with 10% FBS (Gibco/Life Technologies, Carlsbad, CA). For the assay, THP-1 cells are serum starved overnight in RPMI, then plated in RPMI (2×10^5 cells/well in 90 μL) into 96-well flat-bottom tissue culture treated plates (Corning, Corning, NY), in the presence or absence of a concentration range of test compounds. Covered plates are incubated for 2 hours at 37° C., 5% CO2 then treated with or without 10 nM MCP-1(MYBioSource, San Diego, CA) for 15 minutes at 37° C., 5% CO2. Plates are centrifuged at 1600 RPM and supernatants are removed. Cells are lysed in Lysis Buffer (Cell Signaling, Danvers, MA) with Protease Inhibitor (Calbiochem/EMD, Germany), PMSF (Sigma, St Louis MO), HALTS (Thermo Fisher, Rockford, IL) for 30 min on wet ice. Cell lysates are frozen at −80° C. before testing. The lysates are tested in the Human/Mouse/Rat Phospho-RPS6 ELISA (R&D Systems, Inc. Minn, MN). The plate is measured using a microplate reader (SpectraMax M5—Molecular Devices, LLC Sunnyvale, CA) set to 450 nm with a wavelength correction of 540. IC50 determination is performed by fitting the curve of inhibitor percent inhibition versus the log of the inhibitor concentration using the GraphPad Prism 5.0 software.

Where [4] appears, read: THP-1 cells, serum starved, 2 hours compound, 10 nM MCP-1 for 15 minutes, Phospho-RPS6 ELISA, read-out: PI3Kγ_THP1_RPS6_ELISA IC50.

Structures are written as SMILES. Read-outs that look alike come from different tables or passages of the source. Where only a bound is given, the exact number is not on record here.

Usually IC50 stands for the concentration needed to halve the response being measured.

Sequence of PI3Kδ (p110δ/p85α) Recombinant Human Protein (O00329 whole entry): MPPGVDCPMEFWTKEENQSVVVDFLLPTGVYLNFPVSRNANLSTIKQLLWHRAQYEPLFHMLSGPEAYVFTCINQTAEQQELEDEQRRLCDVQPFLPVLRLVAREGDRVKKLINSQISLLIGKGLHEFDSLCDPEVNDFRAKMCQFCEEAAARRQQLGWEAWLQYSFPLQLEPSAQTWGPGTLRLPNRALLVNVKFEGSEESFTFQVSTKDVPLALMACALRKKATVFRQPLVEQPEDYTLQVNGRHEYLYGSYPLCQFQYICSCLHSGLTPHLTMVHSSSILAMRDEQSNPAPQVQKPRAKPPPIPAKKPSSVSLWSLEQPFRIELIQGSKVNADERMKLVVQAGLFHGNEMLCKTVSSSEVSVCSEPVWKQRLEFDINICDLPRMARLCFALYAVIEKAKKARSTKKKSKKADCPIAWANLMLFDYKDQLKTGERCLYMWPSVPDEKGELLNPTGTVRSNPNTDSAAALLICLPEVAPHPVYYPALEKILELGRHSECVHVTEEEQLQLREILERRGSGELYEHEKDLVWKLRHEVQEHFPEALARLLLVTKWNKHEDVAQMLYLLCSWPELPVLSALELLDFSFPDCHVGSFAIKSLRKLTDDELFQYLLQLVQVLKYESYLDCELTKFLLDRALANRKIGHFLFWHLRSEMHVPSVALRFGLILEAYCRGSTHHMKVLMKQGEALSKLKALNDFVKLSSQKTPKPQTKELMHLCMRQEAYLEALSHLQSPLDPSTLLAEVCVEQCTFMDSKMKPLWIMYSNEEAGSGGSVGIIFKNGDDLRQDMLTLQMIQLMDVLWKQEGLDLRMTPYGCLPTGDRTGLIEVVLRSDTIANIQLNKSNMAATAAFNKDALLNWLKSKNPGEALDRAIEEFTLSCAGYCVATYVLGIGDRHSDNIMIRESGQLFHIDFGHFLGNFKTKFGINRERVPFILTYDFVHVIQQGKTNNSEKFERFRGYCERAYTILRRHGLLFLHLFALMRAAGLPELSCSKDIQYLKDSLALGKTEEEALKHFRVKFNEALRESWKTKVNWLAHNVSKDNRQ
Sequence of PI3Kδ (p110δ/p85α) Recombinant Human Protein (P27986 whole entry partner): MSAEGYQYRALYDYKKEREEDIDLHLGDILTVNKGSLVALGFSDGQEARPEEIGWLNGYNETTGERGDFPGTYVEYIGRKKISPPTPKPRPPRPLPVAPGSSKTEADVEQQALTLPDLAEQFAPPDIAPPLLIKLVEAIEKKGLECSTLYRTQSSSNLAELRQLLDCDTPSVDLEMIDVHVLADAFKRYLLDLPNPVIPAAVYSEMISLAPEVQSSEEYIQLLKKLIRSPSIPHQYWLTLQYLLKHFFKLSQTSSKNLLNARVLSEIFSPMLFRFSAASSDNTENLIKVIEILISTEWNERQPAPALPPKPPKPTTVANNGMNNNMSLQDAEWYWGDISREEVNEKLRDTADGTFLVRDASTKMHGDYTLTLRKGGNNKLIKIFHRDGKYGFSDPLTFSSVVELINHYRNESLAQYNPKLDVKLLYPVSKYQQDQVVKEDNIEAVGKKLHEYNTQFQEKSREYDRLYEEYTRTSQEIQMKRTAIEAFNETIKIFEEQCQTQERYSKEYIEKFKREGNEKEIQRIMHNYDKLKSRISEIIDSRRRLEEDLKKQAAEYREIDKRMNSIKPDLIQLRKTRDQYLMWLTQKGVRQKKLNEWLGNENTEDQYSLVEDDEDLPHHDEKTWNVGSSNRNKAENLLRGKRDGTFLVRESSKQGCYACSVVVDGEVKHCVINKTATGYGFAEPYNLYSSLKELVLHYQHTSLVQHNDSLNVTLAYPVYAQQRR
Sequence of PI3Kγ (p110γ) Recombinant Human Protein (P48736 whole entry): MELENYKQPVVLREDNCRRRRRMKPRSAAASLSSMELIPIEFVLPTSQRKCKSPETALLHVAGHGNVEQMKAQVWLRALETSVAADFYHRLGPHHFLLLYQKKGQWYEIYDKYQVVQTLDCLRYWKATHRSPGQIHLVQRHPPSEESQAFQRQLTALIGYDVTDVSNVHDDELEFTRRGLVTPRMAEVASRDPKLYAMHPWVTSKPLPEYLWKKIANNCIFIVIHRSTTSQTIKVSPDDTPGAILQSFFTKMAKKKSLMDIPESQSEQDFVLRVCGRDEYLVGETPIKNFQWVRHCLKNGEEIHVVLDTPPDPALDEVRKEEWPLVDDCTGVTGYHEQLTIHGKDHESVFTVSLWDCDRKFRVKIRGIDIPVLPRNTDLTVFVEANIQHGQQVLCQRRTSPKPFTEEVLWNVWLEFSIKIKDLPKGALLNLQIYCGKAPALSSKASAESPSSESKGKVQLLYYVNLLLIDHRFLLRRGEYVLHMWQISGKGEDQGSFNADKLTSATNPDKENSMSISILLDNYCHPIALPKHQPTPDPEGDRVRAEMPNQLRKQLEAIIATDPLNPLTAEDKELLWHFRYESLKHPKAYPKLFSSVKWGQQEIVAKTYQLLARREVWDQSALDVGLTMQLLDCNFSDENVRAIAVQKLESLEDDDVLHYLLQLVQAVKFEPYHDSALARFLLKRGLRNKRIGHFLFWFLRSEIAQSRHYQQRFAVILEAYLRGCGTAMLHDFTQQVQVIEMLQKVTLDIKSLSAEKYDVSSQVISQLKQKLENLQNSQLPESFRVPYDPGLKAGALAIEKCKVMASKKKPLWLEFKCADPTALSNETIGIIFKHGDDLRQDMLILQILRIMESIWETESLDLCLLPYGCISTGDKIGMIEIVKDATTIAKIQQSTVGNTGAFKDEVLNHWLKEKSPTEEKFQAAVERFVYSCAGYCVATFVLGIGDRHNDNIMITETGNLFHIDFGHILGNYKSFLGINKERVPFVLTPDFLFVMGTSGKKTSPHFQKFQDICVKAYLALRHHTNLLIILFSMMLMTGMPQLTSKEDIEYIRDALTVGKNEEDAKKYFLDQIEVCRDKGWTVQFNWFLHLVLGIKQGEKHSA

Take `[2H]C([2H])([2H])n1nccc1-c1nc(-c2cc(C(O)(CO)C(F)(F)F)ccc2C)cnc1N` (single isomer, unassigned) [Example 1a, 2-(3-(5-Amino-6-(1-(methyl-d3)-1H-pyrazol-5-yl)pyrazin-2-yl)-4-methylphenyl)-3,3,3-trifluoropropane-1,2-diol]: the IC50 is no more than 100 nM in assay [1], no more than 100 nM in assay [2] and less than 100 nM in assay [3] (setting [4]).
`[2H]C([2H])([2H])n1nccc1-c1nc(-c2cc(C(O)(CO)C(F)(F)F)ccc2C)cnc1N` (single isomer, unassigned) [Example 1b, 2-(3-(5-Amino-6-(1-(methyl-d3)-1H-pyrazol-5-yl)pyrazin-2-yl)-4-methylphenyl)-3,3,3-trifluoropropane-1,2-diol]: the IC50 in assay [1] and in assay [2] was no more than 500 nM in each case.
With `Cc1ncc(-c2nc(-c3cc(C(O)(CO)C(F)(F)F)ccc3C)cnc2N)o1` (single isomer, unassigned) [Example 9, 2-(3-(5-Amino-6-(2-methyloxazol-5-yl)pyrazin-2-yl)-4-methylphenyl)-3,3,3-trifluoropropane-1,2-diol], the IC50 in assay [1] is no more than 100 nM; in assay [2], no more than 100 nM; in assay [3] (setting [4]), less than 100 nM.
For `Cc1ccc(C(O)(CO)C(F)(F)F)cc1-c1cnc(N)c(-n2cccn2)n1` (single isomer, unassigned) [Example 12, 2-(3-(5-Amino-6-(1H-pyrazol-1-yl)pyrazin-2-yl)-4-methylphenyl)-3,3,3-trifluoropropane-1,2-diol], the IC50 in assay [1] is no more than 100 nM; in assay [2], no more than 100 nM; in assay [3] (setting [4]), less than 100 nM.
Consider `[2H]C([2H])([2H])c1ccc(C(O)(CO)C(F)(F)F)cc1-c1cnc(N)c(-c2cnc(C)o2)n1` (single isomer, unassigned) [Example 16, 2-(3-(5-Amino-6-(2-methyloxazol-5-yl)pyrazin-2-yl)-4-(methyl-d3)phenyl)-3,3,3-trifluoropropane-1,2-diol], for which the IC50 in assay [1] is no more than 100 nM; in assay [2], no more than 100 nM; in assay [3] (setting [4]), less than 100 nM.
Take `[2H]C([2H])([2H])c1ccc(C(O)(CO)C(F)(F)F)cc1-c1cnc(N)c(C(=O)NC2CCOCC2)n1` (single isomer, unassigned) [Example 17, 3-Amino-6-(2-(methyl-d3)-5-(1,1,1-trifluoro-2,3-dihydroxypropan-2-yl)phenyl)-N-(tetrahydro-2H-pyran-4-yl)pyrazine-2-carboxamide]: the concentration for half-maximal inhibition (IC50) is no more than 100 nM in assay [1], no more than 100 nM in assay [2] and less than 100 nM in assay [3] (setting [4]).
In the case of `[2H]C([2H])([2H])c1ccc(C(O)(CO)C(F)F)cc1-c1cnc(N)c(C(=O)NC23CCC(O)(CC2)C3)n1` (single isomer, unassigned) [Example 18, 3-Amino-6-(5-(1,1-difluoro-2,3-dihydroxypropan-2-yl)-2-(methyl-d3)phenyl)-N-(4-hydroxybicyclo[2.2.1]heptan-1-yl)pyrazine-2-carboxamide], the IC50 in assay [1] was no more than 100 nM; in assay [2], no more than 100 nM; in assay [3] (setting [4]), less than 100 nM.
In the case of `[2H]C([2H])([2H])c1ccc(C(O)(C(C)O)C(F)(F)F)cc1-c1cnc(N)c(C(=O)NC2CCOCC2)n1` (single isomer, unassigned) [Example 19, 3-Amino-6-(2-(methyl-d3)-5-(1,1,1-trifluoro-2,3-dihydroxybutan-2-yl)phenyl)-N-(tetrahydro-2H-pyran-4-yl)pyrazine-2-carboxamide], the IC50 in assay [1] was no more than 500 nM; in assay [2], no more than 100 nM; in assay [3] (setting [4]), less than 500 nM.
For the compound `Cc1ccc(C(O)(CO)C(F)(F)F)cc1-c1cnc(N)c(C(F)(F)F)n1` (single isomer, unassigned) [Example 25, 2-(3-(5-Amino-6-(trifluoromethyl)pyrazin-2-yl)-4-methylphenyl)-3,3,3-trifluoropropane-1,2-diol], the 50% inhibitory concentration (IC50) was no more than 500 nM in assay [1] and no more than 100 nM in assay [2].
Taken in the same sequence, the figures for `Cc1ccc(C(O)(CO)C(F)(F)F)cc1-c1cnc(N)c(C(=O)NC23CC(CO)(C2)C3)n1` (single isomer, unassigned) [Example 32] were no more than 100 nM and no more than 100 nM.
For `Cc1ccc(C(O)(CO)C(F)(F)F)cc1-c1cnc(N)c(C(=O)N[C@@H](C)CO)n1` (single isomer, unassigned) [Example 33], in that order: no more than 100 nM and no more than 100 nM.
Taken in the same sequence, the figures for `Cc1ccc(C(O)(CO)C(F)(F)F)cc1-c1cnc(N)c(C(=O)NCC(C)(C)C#N)n1` (single isomer, unassigned) [Example 34] were no more than 100 nM and no more than 100 nM.
Take `Cc1ccc(C(O)(CO)C(F)(F)F)cc1-c1cnc(N)c(C(=O)NC23CCC(O)(CC2)C3)n1` (single isomer, unassigned) [Example 35]: the IC50 in assay [1] and in assay [2] was no more than 100 nM each time.
For the compound `Cc1ccc(C(O)(CO)C(F)(F)F)cc1-c1cnc(N)c(C(=O)N[C@H](C)CO)n1` (single isomer, unassigned) [Example 36], the IC50 in assay [1] and in assay [2] was no more than 100 nM each time.
As for `[2H]C([2H])([2H])c1ccc(C(O)(CO)C(F)(F)F)cc1-c1cnc(N)c(C(=O)N[C@H](C)CO)n1` (single isomer, unassigned) [Example 36], the IC50 in assay [3] (setting [4]) is less than 500 nM.
Regarding `Cc1ccc([C@](O)(CO)C(F)F)cc1-c1cnc(N)c(C(=O)NC(C)C)n1` (single isomer, unassigned) [Example 46], in assay [3] (THP-1, read-out: PI3Kγ_THP1_RPS6_ELISA IC50 (nM)), the IC50 is less than 100 nM.
On to `[2H]C([2H])([2H])c1ccc(C(O)(C(O)C(F)(F)F)C(F)(F)F)cc1-c1cnc(N)c(-c2c[nH]nc2C)n1` (stereo not drawn) [Example 20, 2-(3-(5-Amino-6-(3-methyl-1H-pyrazol-4-yl)pyrazin-2-yl)-4-(methyl-d3)phenyl)-1,1,1,4,4,4-hexafluorobutane-2,3-diol], for which the IC50 was no more than 500 nM in assay [1] and no more than 100 nM in assay [2].

These data come from patent publication US11926616B2, “Aminopyrazine diol compounds as PI3K-γ inhibitors” (Incyte Corporation, priority 2018, dated 2024).
